In patent US20100273801A1, “BETULIN DERIVED COMPOUNDS USEFUL AS ANTIBACTERIAL AGENTS” (Valition teknillinen tutikimuskeskus, priority 2006, published 2010):

Assays:
Staphylococcus aureus = assay: turbidometric bacterial growth inhibition on a 96 well plate; conditions: compound 1 mg/ml
Protocol: (§1) The antimicrobial efficiency of betulin derived compounds against Staphylococcus aureus, Staphylococcus epidemidis, Micrococcus luteus and Bacillus subtilis was studied using a turbidometric method on a 96 well plate.
(§2) After juvenescence, suspension cultivation was prepared from the bacterial strains in the Todd-Hewitt broth. The suspension was introduced with a pipette to a 96 well plate, followed by the addition of the compound to be tested (3 parallel tests for each compound). […] Erythromycin was used as the control. Bacterial growth was monitored by measuring the absorbances of the samples at 620 nm at 0, 1, 2, 3, 4 and 24 hours. The sample plate was incubated at 37° C. in a shaker (250 rpm) between the measurements. Effects of the compounds on bacterial growth were evaluated by comparison of the growths of exposed and unexposed samples.

S. epidermidis = assay: as above; conditions: compound 1 mg/ml
Protocol: as §1, §2

Bacillus subtilis = assay: as above; conditions: compound 1 mg/ml
Protocol: as §1, §2

Micrococcus luteus = assay: as above; conditions: compound 1 mg/ml
Protocol: as §1, §2

bacteria = assay: antibacterial activity of compounds derived from betulin (summary statement); type: cell-based; conditions: already at a concentration of 1 μg/ml
Text: Erythromycin was used as the control.

Molecule	percent growth inhibition S. aureus 4 h (Staphylococcus aureus) [%]	percent growth inhibition S. aureus 24 h (Staphylococcus aureus) [%]	percent growth inhibition S. epidermidis 4 h (S. epidermidis) [%]	percent growth inhibition S. epidermidis 24 h (S. epidermidis) [%]	percent growth inhibition B. subtilis 4 h (Bacillus subtilis) [%]	percent growth inhibition B. subtilis 24 h (Bacillus subtilis) [%]	percent growth inhibition M. luteus 4 h (Micrococcus luteus) [%]	percent growth inhibition M. luteus 24 h (Micrococcus luteus) [%]	antibacterial activity (bacteria)
28-C18-alkenylsuccinic acid diester of betulin [Compound 21]	0.0	0.0	0.0	0.0	0.0	6.9	0.0	10.1	
3,28-C18-dialkenylsuccinic acid diester of betulin [Compound 20]	0.0	0.0	0.0	0.0	0.0	9.0	0.0	12.6	
C=C(C)[C@@H]1CC[C@]2(C(=O)O)CC[C@]3(C)[C@H](CC[C@@H]4[C@@]5(C)CCC(=O)C(C)(C)[C@@H]5CC[C@]43C)[C@@H]12 [Compound 5, betulonic acid]	51.6	0.0	52.7	0.0	102.3	0.0	91.3	0.0	considerable antibacterial activity
3,28-diisostearic acid ester of betulin [Compound 1]	2.1	0.0	0.0	0.0	0.0	8.9	8.8	7.6	
C=C(C)C1CCC2(COC(=O)C=Cc3ccccc3)CCC3(C)C(CCC4C5(C)CCC(O)C(C)(C)C5CCC43C)C12 (stereo not shown) [Compound 30, 28-cinnamic acid ester of betulin]	13.0	0.0	8.5	0.0	5.9	11.1	0.0	0.0	
betulin 3,28-diacetate-18-19-diene [Compound 6]	0.0	0.0	0.0	0.0	0.0	3.7	0.0	1.5	
